Measurements reported in ChEMBL document CHEMBL1201862, “PubChem BioAssay data set” (2004).
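Dose response: 5 concentrations. Exposure: 48 h. Format: 96-well plates. Endpoint: linear interpolation; highest concentration if not reached. GI50 marks 50% less growth.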 Calls of active or inactive are those of the source. Cut-off read from the data, not from the text of the source: active = GI50 up to about 1.1 µM and inactive = higher.

Tests used:
Assay in all cases: DTP human tumour cell line panel, 48 h
HOP-92 = tested on: HOP-92
U-251 = tested on: U-251
CCRF-CEM = tested on: CCRF-CEM
OVCAR-3 = tested on: OVCAR-3
HOP-62 = tested on: HOP-62
NCI-H23 = tested on: NCI-H23
SF-295 = tested on: SF-295
UACC-62 = tested on: UACC-62
DU-145 = tested on: DU-145
A549 = tested on: A549
A498 = tested on: A498
M14 = tested on: M14
MOLT-4 = tested on: MOLT-4
SK-MEL-28 = tested on: SK-MEL-28
BT-549 = tested on: BT-549
CAKI-1 = tested on: CAKI-1
TK-10 = tested on: TK-10
NCI-H226 = tested on: NCI-H226
Hs-578T = tested on: Hs-578T
SK-OV-3 = tested on: SK-OV-3

Compound | GI50 (HOP-92) | GI50 (U-251) | GI50 (CCRF-CEM) | GI50 (OVCAR-3) | GI50 (HOP-62) | GI50 (NCI-H23) | GI50 (SF-295) | GI50 (UACC-62) | GI50 (DU-145) | GI50 (A549) | GI50 (A498) | GI50 (M14) | GI50 (MOLT-4) | GI50 (SK-MEL-28) | GI50 (BT-549) | GI50 (CAKI-1) | GI50 (TK-10) | GI50 (NCI-H226) | GI50 (Hs-578T) | GI50 (SK-OV-3)
CCCCCCCCCCCCCCCCCCNc1ccn(C2OC(COP(=O)(O)OCC3OC(n4cc(C)c(=O)[nH]c4=O)CC3O)C(O)C2O)c(=O)n1 (stereo not given) | 29.9 µM (inactive) | 18.9 µM (inactive) | 10.4 µM (inactive) | 19 µM (inactive) | 16.7 µM (inactive) | 15.2 µM (inactive) | 18.7 µM (inactive) | 18.4 µM (inactive) | 17.8 µM (inactive) | 17.8 µM (inactive) | 24.8 µM (inactive) | 17 µM (inactive) | 10.6 µM (inactive) | 17.5 µM (inactive) | 14.7 µM (inactive) | 18.4 µM (inactive) | 5.68 µM (inactive) | 23.7 µM (inactive) | 19.4 µM (inactive) | 17.1 µM (inactive)
Nc1nc(Cl)c2ncn(Cc3ccc(CCl)cc3)c2n1 | 1.64 µM (inactive) | 3.56 µM (inactive) | 2.68 µM (inactive) | 2.16 µM (inactive) | 6.85 µM (inactive) | 12 µM (inactive) | 10.8 µM (inactive) | 2.23 µM (inactive) | 6.59 µM (inactive) | 15.7 µM (inactive) | 22 µM (inactive) | 14 µM (inactive) | 2.96 µM (inactive) | 18 µM (inactive) | 6.84 µM (inactive) | 2.49 µM (inactive) | 16.6 µM (inactive) | 10.4 µM (inactive) | 29.2 µM (inactive) | 15.1 µM (inactive)
N#Cc1c(C#N)c(SSc2c(C#N)c(C#N)c(N)n2-c2ccc(F)cc2)n(-c2ccc(F)cc2)c1N | 2.96 µM (inactive) | 20.2 µM (inactive) | 2.02 µM (inactive) | 2.66 µM (inactive) | 17.8 µM (inactive) | 6.73 µM (inactive) | 17.9 µM (inactive) | 16.9 µM (inactive) | 16 µM (inactive) | 18.9 µM (inactive) | 8.11 µM (inactive) | 4.8 µM (inactive) | 0.619 µM (active) | 3.72 µM (inactive) | 2.88 µM (inactive) | 8.17 µM (inactive) | 3.9 µM (inactive) | 20.8 µM (inactive) | 25.8 µM (inactive) | 17.5 µM (inactive)
Nc1cc(Cl)cc2cc(Cl)cnc12 | 31.8 µM (inactive) | > 100 µM (inactive) | 14 µM (inactive) | > 100 µM (inactive) | > 100 µM (inactive) | > 100 µM (inactive) | > 100 µM (inactive) | 75.2 µM (inactive) | > 100 µM (inactive) | > 100 µM (inactive) | 49 µM (inactive) | > 100 µM (inactive) | 44.5 µM (inactive) | > 100 µM (inactive) | > 100 µM (inactive) | > 100 µM (inactive) | > 100 µM (inactive) | > 100 µM (inactive) | 89.7 µM (inactive) | > 100 µM (inactive)
N#CC1(C#N)C2=C(CCCC2)NC(c2ccc(Br)cc2)C1(C#N)C#N (stereo not given) | 4.76 µM (inactive) | 13.5 µM (inactive) | 0.226 µM (active) | 6.56 µM (inactive) | 17.4 µM (inactive) | 12.3 µM (inactive) | 22.8 µM (inactive) | 16.5 µM (inactive) | 12.5 µM (inactive) | 17.2 µM (inactive) | 19 µM (inactive) | 2.63 µM (inactive) | 0.384 µM (active) | 12.6 µM (inactive) | 13.8 µM (inactive) | 1.75 µM (inactive) | 4.44 µM (inactive) | 20.2 µM (inactive) | 17.1 µM (inactive) | 22.7 µM (inactive)
ClC1=NN=C(c2c[nH]c3ccccc23)CC1NCc1ccccc1 (stereo not given) | > 100 µM (inactive) | > 100 µM (inactive) | > 100 µM (inactive) | > 100 µM (inactive) | > 100 µM (inactive) | > 100 µM (inactive) | > 100 µM (inactive) | > 100 µM (inactive) | > 100 µM (inactive) | > 100 µM (inactive) | > 100 µM (inactive) | > 100 µM (inactive) | > 100 µM (inactive) | > 100 µM (inactive) | > 100 µM (inactive) | > 100 µM (inactive) | > 100 µM (inactive) | > 100 µM (inactive) | > 100 µM (inactive) | > 100 µM (inactive)
NC(=O)N/N=C1\CC2C3CC4C2C4C13 (stereo not given) | > 100 µM (inactive) | > 100 µM (inactive) | > 100 µM (inactive) | > 100 µM (inactive) | > 100 µM (inactive) | > 100 µM (inactive) | > 100 µM (inactive) | > 100 µM (inactive) | > 100 µM (inactive) | > 100 µM (inactive) | > 100 µM (inactive) | > 100 µM (inactive) | > 100 µM (inactive) | > 100 µM (inactive) | > 100 µM (inactive) | > 100 µM (inactive) | > 100 µM (inactive) | > 100 µM (inactive) | > 100 µM (inactive) | > 100 µM (inactive)
